Earlier results on eight compounds are cited in patent publication US20200268817A1, “CANNABINOID COMPOSITIONS, METHODS OF MANUFACTURE AND USE THEREOF” (priority 2016, published 2020).

Where two headings read alike, the source gives them in different places.

For one data set, the target named is CB2 (Homo sapiens, UniProt P34972).
Data set [1] relates to synovial cells isolated from mice.
Data set [2] concerns patients with acute paranoid schizophrenia. Particulars: for psychotic symptoms (Brief Psychiatric Rating Scale, Positive and Negative Syndrome Scale): after 2 and 4 weeks, 42 patients.
A further data set has as its system schizophrenic patients. Particulars: over six weeks.
The test system of another data set is prostaglandin E2. Particulars: more potent than aspirin.
The subject of data set [3] is peripheral blood mononuclear cells. Particulars: added to peripheral blood mononuclear cells in vitro.
Data set [4] relates to patients. Particulars: low cannabinoid dosages; vs placebo.
Data set [5] relates to advanced cancer patients with substantial appetite loss. Particulars: 469 advanced cancer patients; p=0.0001.
Another data set relates to advanced cancer patients. Particulars: patients receiving chemotherapy; compared to placebo.
Data set [6] relates to patients. Particulars: Phase III study (31).

CB2, sequence (P34972 whole entry, species assumed): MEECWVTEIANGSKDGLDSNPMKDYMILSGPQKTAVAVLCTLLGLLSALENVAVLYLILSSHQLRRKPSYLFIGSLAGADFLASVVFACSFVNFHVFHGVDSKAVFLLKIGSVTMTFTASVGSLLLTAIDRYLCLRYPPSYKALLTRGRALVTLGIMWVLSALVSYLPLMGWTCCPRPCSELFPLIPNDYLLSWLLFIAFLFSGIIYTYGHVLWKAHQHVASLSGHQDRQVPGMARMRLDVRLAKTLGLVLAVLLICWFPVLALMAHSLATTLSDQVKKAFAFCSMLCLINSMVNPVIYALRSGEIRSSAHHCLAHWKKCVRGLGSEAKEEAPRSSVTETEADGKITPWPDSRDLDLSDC

Take `C=C1CC/C=C(\C)CC[C@@H]2[C@@H]1CC2(C)C` [Beta caryophyllene, Beta-caryophyllene]: the “binding to CB2” value on CB2 was “binds”. Moreover, in the data set with human peripheral blood, the “TNF alpha and IL-lb expression” value was “inhibits”.

As to `C=C(C)[C@@H]1CCC(C)=C[C@H]1c1c(O)cc(CCCCC)cc1O` [CBD, Cannabidiol], the “release of TNF-alpha” value in data set [1] is listed as “suppressed”. Further, in data set [2] (4 week trial), the “side effects (extrapyramidal symptoms, increase in prolactin, weight gain) compared to amisulpride” value is recorded as “significantly fewer side effects”. Besides, the “psychotic symptoms (Brief Psychiatric Rating Scale, Positive and Negative Syndrome Scale)” value in [2] is “significant decrease of psychotic symptoms”. In addition, the “affinity for CB2 receptor” value at CB2 is on record as “very low affinity”. Besides, in the data set with schizophrenic patients (add-on to anti-psychotic, 88 patients), the “positive and cognitive symptoms” value was “improved positive and cognitive symptoms”. Also, in the data set on schizophrenic patients, the adverse effects entry is on record as “no severe adverse effects”.

As for `COc1cc(-c2cc(=O)c3c(O)c(C/C=C(\C)CCC=C(C)C)c(O)cc3o2)ccc1O` [Cannaflavin A], the “potency as inhibitor of prostaglandin E2 relative to aspirin” value in the data set with prostaglandin E2 is listed as 30 ×.

With `O=c1cc(-c2ccc(O)c(O)c2)oc2cc(O)cc(O)c12` [Luteolin], the “production of TNFa, IL-lb, and IL-6” value in data set [3] is “suppress”.

With `CCCCCc1cc(O)c2c(c1)OC(C)(C)[C@@H]1CCC(C)=C[C@@H]21` [THC, Tetrahydrocannabinol], for the setting “inhaled”, the “start of psychotropic effects” value was “within seconds to a few minutes”, the “time to maximum psychotropic effects” value was 15 to 30 min and the “time until psychotropic effects taper off” value was 2 to 3 h. Besides, under “oral ingestion”, the “delay until psychotropic effects set in” value is 30 to 90 min and the “time to maximum psychotropic effects” value was 120 to 180 min. Moreover, the “duration of psychotropic effects” value (oral ingestion, depending on dose and specific effect) was 4 to 12 h. Also, the “differences between the groups in improvement in appetite or weight-gain” value in the data set with patients [4] is listed as “No significant differences”.

In the case of `CCN1CCCC1CNC(=O)c1cc(S(=O)(=O)CC)c(N)cc1OC` (centres unmarked) [amisulpride], in data set [2], the “psychotic symptoms (Brief Psychiatric Rating Scale, Positive and Negative Syndrome Scale)” value was “significant decrease of psychotic symptoms”.

As for `CCCCCc1cc(O)c2c(c1)OC(C)(C)[C@@H]1CCC(C)=C[C@@H]21` [dronabinol], in data set [5], the “patients reporting appetite improvement” value is given as 49%. The “taste and smell perception, appetite and caloric intake” value in the data set on advanced cancer patients is “improvement”. Moreover, in the data set on patients [6], the “true response (weight gain of >=10% from baseline weight)” value is listed as 3%. For the same compound, in the data set with cancer patients (cancer patients, placebo 7%), the “patients with decreased nausea” value is recorded as 20%. The “patients with increased appetite” value in the data set on cancer patients (cancer patients, placebo 8%) is 38%. In addition, the “patients who gained >=2 kg” value with cancer patients (placebo 10.5%, did not reach significance) was 22%.

Consider `CC(=O)O[C@]1(C(C)=O)CC[C@H]2[C@@H]3C=C(C)C4=CC(=O)CC[C@]4(C)[C@H]3CC[C@@]21C` [megestrol acetate], for which the “patients reporting appetite improvement” value in data set [5] is on record as 75%. In addition, in the data set on patients [6], the “true response (weight gain of >=10% from baseline weight)” value is 11%.
